Experimental data from patent US12479847B2 (DANA-FARBER CANCER INSTITUTE, INC., priority 2019, dated 2025).

Experiments:
Experiment in all cases: KINOMEscan (ScanMAX) kinase profiling
Type in all cases: binding
panel of 468 kinases [1] = target: T1, panel of 468 kinases (Homo sapiens, UniProt P15056, V600E); conditions: BRAF(V600E); 1 μM; read-out: % control
T1 construct: purchased KINOMEscan (ScanMAX) service

panel of 468 kinases [2] = target: T2, panel of 468 kinases (Homo sapiens, UniProt O75116); conditions: ROCK2; 1 μM; read-out: % control
T2 construct: purchased KINOMEscan (ScanMAX) service

panel of 468 kinases [3] = target: T3, panel of 468 kinases (Homo sapiens, UniProt Q8TBX8); conditions: PIP5K2C; 1 μM; read-out: % control
T3 construct: purchased KINOMEscan (ScanMAX) service
T3 sequence (Q8TBX8 1-421): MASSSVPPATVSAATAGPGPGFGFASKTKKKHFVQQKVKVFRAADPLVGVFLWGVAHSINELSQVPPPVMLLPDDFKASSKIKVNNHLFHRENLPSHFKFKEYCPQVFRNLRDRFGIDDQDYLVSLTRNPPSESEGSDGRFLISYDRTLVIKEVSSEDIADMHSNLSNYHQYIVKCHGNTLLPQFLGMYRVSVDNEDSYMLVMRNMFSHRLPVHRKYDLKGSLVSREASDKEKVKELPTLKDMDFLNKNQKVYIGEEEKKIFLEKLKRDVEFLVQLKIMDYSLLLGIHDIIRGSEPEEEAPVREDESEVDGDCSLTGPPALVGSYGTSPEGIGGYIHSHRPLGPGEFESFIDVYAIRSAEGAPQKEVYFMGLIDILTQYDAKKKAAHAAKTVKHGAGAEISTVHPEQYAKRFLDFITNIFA

panel of 468 kinases [4] = target: T4, panel of 468 kinases (Homo sapiens, UniProt Q13554); conditions: CAMK2B; 1 μM; read-out: % control
T4 construct: purchased KINOMEscan (ScanMAX) service

panel of 468 kinases [5] = target: T5, panel of 468 kinases (Homo sapiens, UniProt P36507); conditions: MEK2; 1 μM; read-out: % control
T5 construct: purchased KINOMEscan (ScanMAX) service

panel of 468 kinases [6] = target: T6, panel of 468 kinases (Homo sapiens, UniProt P53350); conditions: PLK1; 1 μM; read-out: % control
T6 construct: purchased KINOMEscan (ScanMAX) service

panel of 468 kinases [7] = target: T7, panel of 468 kinases (Homo sapiens, UniProt Q9P0L2); conditions: MARK1; 1 μM; read-out: % control
T7 construct: purchased KINOMEscan (ScanMAX) service

panel of 468 kinases [8] = target: T8, panel of 468 kinases (Homo sapiens, UniProt P42685); conditions: FRK; 1 μM; read-out: % control
T8 construct: purchased KINOMEscan (ScanMAX) service

panel of 468 kinases [9] = target: T9, panel of 468 kinases (Homo sapiens, UniProt Q9UQB9); conditions: AURKC; 1 μM; read-out: % control
T9 construct: purchased KINOMEscan (ScanMAX) service
T9 sequence (Q9UQB9 1-309): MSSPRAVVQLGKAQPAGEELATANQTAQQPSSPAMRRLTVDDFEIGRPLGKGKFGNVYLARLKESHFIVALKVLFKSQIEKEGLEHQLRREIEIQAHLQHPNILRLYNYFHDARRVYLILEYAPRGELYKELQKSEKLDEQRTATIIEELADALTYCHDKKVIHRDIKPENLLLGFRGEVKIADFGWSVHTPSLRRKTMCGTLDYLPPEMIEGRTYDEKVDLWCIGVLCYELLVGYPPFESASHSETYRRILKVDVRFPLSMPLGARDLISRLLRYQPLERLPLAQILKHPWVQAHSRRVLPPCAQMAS

panel of 468 kinases [10] = target: T10, panel of 468 kinases (Homo sapiens, UniProt Q13557); conditions: CAMK2D; 1 μM; read-out: % control
T10 construct: purchased KINOMEscan (ScanMAX) service

panel of 468 kinases [11] = target: T11, panel of 468 kinases (Homo sapiens, UniProt P10721, V559D); conditions: KIT(V559D); 1 μM; read-out: % control
T11 construct: purchased KINOMEscan (ScanMAX) service

panel of 468 kinases [12] = target: T12, panel of 468 kinases (Homo sapiens, UniProt P48730); conditions: CSNK1D; 1 μM; read-out: % control
T12 construct: purchased KINOMEscan (ScanMAX) service

panel of 468 kinases [13] = target: T13, panel of 468 kinases (Homo sapiens, UniProt P08922); conditions: ROS1; 1 μM; read-out: % control
T13 construct: purchased KINOMEscan (ScanMAX) service

panel of 468 kinases [14] = target: T14, panel of 468 kinases (Homo sapiens, UniProt Q8TF76); conditions: HASPIN; 1 μM; read-out: % control
T14 construct: purchased KINOMEscan (ScanMAX) service
T14 sequence (Q8TF76 1-798): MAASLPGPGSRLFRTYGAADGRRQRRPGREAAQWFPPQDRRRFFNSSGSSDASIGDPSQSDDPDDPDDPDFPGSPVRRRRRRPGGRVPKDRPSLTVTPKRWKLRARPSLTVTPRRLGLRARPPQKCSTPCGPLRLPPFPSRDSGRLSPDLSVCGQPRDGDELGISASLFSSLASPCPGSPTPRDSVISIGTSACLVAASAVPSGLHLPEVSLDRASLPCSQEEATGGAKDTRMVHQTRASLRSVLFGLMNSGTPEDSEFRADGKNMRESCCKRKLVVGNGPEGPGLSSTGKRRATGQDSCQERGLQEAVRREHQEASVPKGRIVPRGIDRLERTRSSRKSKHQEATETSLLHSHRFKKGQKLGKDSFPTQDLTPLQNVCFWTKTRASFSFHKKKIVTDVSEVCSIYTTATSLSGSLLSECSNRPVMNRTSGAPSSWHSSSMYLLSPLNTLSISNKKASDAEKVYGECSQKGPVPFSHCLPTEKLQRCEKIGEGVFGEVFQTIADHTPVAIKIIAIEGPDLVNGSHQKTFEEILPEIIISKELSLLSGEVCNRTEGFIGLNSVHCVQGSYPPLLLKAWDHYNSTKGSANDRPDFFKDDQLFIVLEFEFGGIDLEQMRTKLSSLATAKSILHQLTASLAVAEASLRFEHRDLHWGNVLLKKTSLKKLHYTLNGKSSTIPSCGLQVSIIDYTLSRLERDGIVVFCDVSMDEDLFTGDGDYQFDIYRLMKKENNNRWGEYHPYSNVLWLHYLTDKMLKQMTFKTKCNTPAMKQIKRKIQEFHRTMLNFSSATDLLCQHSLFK

T7 sequence (Q9P0L2 whole entry): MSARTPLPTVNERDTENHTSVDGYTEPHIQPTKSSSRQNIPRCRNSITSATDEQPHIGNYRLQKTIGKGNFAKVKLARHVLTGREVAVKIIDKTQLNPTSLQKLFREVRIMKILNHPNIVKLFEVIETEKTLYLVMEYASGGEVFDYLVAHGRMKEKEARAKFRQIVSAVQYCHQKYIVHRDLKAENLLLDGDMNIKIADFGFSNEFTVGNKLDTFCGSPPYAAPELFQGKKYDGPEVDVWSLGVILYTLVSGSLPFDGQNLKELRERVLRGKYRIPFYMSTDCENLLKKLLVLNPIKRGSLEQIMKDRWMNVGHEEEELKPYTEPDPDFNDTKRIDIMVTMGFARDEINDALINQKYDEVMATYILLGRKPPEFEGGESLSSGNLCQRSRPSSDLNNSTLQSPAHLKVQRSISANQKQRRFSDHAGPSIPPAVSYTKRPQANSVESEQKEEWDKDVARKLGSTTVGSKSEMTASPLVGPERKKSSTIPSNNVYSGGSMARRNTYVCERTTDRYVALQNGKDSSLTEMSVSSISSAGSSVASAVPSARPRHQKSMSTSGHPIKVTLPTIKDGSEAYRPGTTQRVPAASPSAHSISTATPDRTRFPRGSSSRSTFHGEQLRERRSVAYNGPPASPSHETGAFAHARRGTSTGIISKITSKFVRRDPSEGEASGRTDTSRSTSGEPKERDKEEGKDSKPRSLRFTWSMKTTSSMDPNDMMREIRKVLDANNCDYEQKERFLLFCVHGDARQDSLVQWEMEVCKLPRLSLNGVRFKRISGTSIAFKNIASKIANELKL
T13 sequence (P08922 28-2347): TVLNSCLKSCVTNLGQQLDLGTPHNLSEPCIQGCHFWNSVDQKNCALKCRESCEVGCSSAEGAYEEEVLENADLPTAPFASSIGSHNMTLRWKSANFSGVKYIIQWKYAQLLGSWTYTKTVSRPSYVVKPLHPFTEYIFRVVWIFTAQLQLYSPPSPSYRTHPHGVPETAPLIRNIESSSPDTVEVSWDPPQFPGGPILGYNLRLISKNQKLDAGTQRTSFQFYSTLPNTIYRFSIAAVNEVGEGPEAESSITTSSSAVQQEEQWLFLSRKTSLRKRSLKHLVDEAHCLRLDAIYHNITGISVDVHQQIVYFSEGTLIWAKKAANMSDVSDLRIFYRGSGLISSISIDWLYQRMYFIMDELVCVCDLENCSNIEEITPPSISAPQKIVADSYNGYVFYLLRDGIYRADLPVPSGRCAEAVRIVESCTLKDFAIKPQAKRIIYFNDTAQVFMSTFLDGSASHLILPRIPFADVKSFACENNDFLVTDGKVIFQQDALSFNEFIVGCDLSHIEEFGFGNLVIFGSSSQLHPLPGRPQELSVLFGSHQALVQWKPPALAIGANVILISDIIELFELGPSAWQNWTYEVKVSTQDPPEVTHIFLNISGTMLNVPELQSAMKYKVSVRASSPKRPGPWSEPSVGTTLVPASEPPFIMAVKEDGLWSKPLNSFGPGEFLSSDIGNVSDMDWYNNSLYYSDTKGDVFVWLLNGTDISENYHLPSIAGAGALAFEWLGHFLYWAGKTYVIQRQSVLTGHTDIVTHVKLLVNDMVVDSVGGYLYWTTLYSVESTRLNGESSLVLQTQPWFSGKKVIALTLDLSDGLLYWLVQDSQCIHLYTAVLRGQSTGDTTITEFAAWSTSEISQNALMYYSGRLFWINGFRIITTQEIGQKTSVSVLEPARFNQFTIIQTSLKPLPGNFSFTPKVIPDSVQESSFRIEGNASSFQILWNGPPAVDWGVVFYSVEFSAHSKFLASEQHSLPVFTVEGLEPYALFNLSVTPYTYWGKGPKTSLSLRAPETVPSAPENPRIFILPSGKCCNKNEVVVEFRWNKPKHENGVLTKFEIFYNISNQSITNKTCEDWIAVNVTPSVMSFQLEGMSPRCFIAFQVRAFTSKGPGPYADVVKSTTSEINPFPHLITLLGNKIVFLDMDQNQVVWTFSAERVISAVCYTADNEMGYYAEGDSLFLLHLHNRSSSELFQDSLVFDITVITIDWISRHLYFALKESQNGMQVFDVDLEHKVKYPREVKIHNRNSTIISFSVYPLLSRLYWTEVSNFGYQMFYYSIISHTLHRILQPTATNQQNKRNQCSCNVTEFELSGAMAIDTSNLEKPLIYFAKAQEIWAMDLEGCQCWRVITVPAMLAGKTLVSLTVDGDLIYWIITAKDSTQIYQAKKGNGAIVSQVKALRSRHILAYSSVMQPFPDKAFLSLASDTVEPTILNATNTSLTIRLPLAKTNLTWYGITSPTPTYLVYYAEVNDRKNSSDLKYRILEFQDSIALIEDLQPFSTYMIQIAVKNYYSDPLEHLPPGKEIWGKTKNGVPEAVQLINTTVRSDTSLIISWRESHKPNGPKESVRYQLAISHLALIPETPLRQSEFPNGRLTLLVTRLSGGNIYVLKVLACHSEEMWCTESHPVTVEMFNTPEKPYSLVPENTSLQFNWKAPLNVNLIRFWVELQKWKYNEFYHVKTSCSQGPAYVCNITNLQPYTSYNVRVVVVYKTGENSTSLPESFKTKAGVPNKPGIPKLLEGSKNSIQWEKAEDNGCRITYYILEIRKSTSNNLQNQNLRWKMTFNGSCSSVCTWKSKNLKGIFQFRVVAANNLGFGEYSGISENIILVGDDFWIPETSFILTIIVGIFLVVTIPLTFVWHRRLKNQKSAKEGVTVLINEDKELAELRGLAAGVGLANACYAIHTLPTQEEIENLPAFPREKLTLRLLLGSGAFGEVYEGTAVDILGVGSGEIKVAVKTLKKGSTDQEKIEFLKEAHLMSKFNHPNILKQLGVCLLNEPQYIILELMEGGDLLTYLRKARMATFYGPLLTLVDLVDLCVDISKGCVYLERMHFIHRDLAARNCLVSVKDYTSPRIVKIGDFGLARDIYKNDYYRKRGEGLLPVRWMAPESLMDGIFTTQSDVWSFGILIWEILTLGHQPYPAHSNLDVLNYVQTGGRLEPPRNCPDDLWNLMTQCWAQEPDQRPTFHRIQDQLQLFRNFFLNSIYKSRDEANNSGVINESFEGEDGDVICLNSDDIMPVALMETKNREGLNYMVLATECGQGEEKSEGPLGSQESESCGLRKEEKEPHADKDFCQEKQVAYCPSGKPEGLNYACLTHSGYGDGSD
T4 sequence (Q13554 whole entry): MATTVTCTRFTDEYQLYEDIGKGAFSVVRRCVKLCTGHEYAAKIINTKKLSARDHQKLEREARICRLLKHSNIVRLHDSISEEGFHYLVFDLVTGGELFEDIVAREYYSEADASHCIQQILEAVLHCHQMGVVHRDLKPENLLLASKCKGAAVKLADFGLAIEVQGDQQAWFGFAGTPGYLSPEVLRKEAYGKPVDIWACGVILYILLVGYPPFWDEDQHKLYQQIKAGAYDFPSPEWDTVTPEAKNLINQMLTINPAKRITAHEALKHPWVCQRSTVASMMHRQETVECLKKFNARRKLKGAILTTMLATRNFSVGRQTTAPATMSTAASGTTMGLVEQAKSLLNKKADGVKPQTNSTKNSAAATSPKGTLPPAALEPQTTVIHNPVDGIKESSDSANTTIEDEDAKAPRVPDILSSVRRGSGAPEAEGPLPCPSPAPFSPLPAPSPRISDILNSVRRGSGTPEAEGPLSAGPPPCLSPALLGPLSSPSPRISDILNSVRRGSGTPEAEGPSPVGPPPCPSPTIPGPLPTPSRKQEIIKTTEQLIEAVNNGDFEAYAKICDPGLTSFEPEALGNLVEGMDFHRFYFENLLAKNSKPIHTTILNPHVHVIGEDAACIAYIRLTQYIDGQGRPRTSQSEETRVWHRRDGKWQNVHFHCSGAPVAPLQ
T6 sequence (P53350 whole entry): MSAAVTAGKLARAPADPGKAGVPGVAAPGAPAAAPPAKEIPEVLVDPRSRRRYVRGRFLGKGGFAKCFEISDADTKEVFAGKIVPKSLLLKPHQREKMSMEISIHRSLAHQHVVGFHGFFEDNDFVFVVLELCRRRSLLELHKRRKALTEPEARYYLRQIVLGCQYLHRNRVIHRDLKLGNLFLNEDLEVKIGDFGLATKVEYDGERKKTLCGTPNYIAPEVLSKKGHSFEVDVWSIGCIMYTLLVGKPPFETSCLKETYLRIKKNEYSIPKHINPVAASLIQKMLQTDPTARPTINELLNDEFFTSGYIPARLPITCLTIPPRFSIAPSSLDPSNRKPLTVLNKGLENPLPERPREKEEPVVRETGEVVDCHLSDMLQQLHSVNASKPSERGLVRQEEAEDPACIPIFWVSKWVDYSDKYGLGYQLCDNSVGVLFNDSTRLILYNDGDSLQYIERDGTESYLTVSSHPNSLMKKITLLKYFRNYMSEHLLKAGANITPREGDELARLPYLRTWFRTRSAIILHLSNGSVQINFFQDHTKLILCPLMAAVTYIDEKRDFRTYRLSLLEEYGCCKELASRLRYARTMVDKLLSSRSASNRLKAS
T8 sequence (P42685 whole entry): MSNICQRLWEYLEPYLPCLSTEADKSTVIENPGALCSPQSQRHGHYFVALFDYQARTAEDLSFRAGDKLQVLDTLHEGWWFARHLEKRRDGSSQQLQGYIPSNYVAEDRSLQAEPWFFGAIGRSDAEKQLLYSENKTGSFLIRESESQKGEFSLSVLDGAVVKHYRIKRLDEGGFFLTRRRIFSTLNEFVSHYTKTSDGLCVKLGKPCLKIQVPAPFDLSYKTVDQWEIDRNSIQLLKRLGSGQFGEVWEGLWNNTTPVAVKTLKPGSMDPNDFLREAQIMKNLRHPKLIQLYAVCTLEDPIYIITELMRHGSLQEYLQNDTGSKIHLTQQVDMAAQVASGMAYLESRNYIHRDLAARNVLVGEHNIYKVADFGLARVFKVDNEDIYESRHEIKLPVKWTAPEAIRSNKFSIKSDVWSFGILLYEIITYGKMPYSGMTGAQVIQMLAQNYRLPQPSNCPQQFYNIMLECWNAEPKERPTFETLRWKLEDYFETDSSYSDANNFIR

Row | SMILES | remaining binding at 1 µM (panel of 468 kinases [1]) | remaining binding at 1 µM (panel of 468 kinases [2]) | remaining binding at 1 µM (panel of 468 kinases [3]) | remaining binding at 1 µM (panel of 468 kinases [4]) | remaining binding at 1 µM (panel of 468 kinases [5]) | remaining binding at 1 µM (panel of 468 kinases [6]) | remaining binding at 1 µM (panel of 468 kinases [7]) | remaining binding at 1 µM (panel of 468 kinases [8]) | remaining binding at 1 µM (panel of 468 kinases [9]) | remaining binding at 1 µM (panel of 468 kinases [10]) | remaining binding at 1 µM (panel of 468 kinases [11]) | remaining binding at 1 µM (panel of 468 kinases [12]) | remaining binding at 1 µM (panel of 468 kinases [13]) | remaining binding at 1 µM (panel of 468 kinases [14])
1 | CNc1nc(Nc2ccc(C(=O)N3CCC(N4CCOCC4)CC3)c3c2OCO3)nc2[nH]cc(Cl)c12 [Compound 75, (7-((5-chloro-4-(methylamino)-7H-pyrrolo[2,3-d]pyrimidin-2-yl)amino)benzo[d][1,3]dioxol-4-yl)(4-morpholinopiperidin-1-yl)methanone] | 100% | 35% | 0% | 94% | 76% | 78% | 100% | 100% | 56% | 89% | 39% | 15% | 86% | 25%
2 | CNc1nc(Nc2ccc(S(=O)(=O)N3CCC(N4CCOCC4)CC3)cc2OC)nc2[nH]cc(Cl)c12 [Compound 12, 5-chloro-N2-(2-methoxy-4-((4-morpholinopiperidin-1-yl)sulfonyl)phenyl)-N4-methyl-7H-pyrrolo[2,3-d]pyrimidine-2,4-diamine] | 91% | 86% | 28% | 100% | 78% | 82% | 100% | 100% | 100% | 96% | 80% | 9.5% | 85% | 29%
3 | CNc1nc(Nc2ccc(P3(=O)CCN(C4CCOCC4)CC3)cc2OC)nc2[nH]cc(Cl)c12 [Compound 77, 4-(4-((5-chloro-4-(methylamino)-7H-pyrrolo[2,3-d]pyrimidin-2-yl)amino)-3-methoxyphenyl)-1-(tetrahydro-2H-pyran-4-yl)-1,4-azaphosphinane 4-oxide] | 88% | 96% | 39% | 92% | 78% | 86% | 96% | 100% | 100% | 89% | 90% | 8.9% | 54% | 35%
